Laboratory results from ChEMBL document CHEMBL1201862, “PubChem BioAssay data set” (2004).
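Grown in 96-well plates, cells were treated for 48 hours with each compound at five concentrations. Insufficient inhibition: endpoint recorded as highest concentration tested. GI50 marks 50% less growth.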 Active and inactive are the calls of the source. Rule as the data show it: active = GI50 up to about 1.1 µM and inactive = higher.

What was measured:
Assay in all cases: NCI-60 cell line screen, 48 h
EKVX = system: EKVX
NCI-H460 = system: NCI-H460
HOP-62 = system: HOP-62
ACHN = system: ACHN
T47D = system: T47D
HT-29 = system: HT-29
COLO 205 = system: COLO 205
SF-268 = system: SF-268
MDA-N = system: MDA-N
KM12 = system: KM12
UACC-257 = system: UACC-257
LOX IMVI = system: LOX IMVI
NCI-H23 = system: NCI-H23
786-0 = system: 786-0
Hs-578T = system: Hs-578T
SR = system: SR
NCI-H522 = system: NCI-H522
SW-620 = system: SW-620
K562 = system: K562
SNB-19 = system: SNB-19
NCI-H226 = system: NCI-H226
A549 = system: A549
HCC 2998 = system: HCC 2998
Malme-3M = system: Malme-3M
MCF7 = system: MCF7
UO-31 = system: UO-31
OVCAR-8 = system: OVCAR-8
OVCAR-5 = system: OVCAR-5
SK-MEL-28 = system: SK-MEL-28
SF-295 = system: SF-295
IGROV-1 = system: IGROV-1
CCRF-CEM = system: CCRF-CEM
MDA-MB-435 = system: MDA-MB-435
SN12C = system: SN12C
DU-145 = system: DU-145
TK-10 = system: TK-10
U-251 = system: U-251
NCI/ADR-RES = system: NCI/ADR-RES
PC-3 = system: PC-3
OVCAR-3 = system: OVCAR-3
CAKI-1 = system: CAKI-1
MDA-MB-231 = system: MDA-MB-231
SK-MEL-2 = system: SK-MEL-2
HL-60 = system: HL-60
HOP-92 = system: HOP-92
M14 = system: M14
SNB-75 = system: SNB-75
MOLT-4 = system: MOLT-4
HCT-15 = system: HCT-15
OVCAR-4 = system: OVCAR-4
SF-539 = system: SF-539
RPMI-8226 = system: RPMI-8226
SK-MEL-5 = system: SK-MEL-5
HCT-116 = system: HCT-116
A498 = system: A498
RXF 393 = system: RXF 393
UACC-62 = system: UACC-62
SK-OV-3 = system: SK-OV-3
BT-549 = system: BT-549

Measured: GI50

O=C(O)CCCCC1CCSS1 (stereo not drawn) [LIPOIC ACID, ALPHA]
inactive: EKVX > 100 µM | NCI-H460 > 100 µM | HOP-62 > 100 µM | ACHN > 100 µM | T47D > 100 µM | HT-29 > 100 µM | COLO 205 > 100 µM | SF-268 > 100 µM | MDA-N > 100 µM | KM12 > 100 µM | UACC-257 > 100 µM | LOX IMVI > 100 µM | NCI-H23 > 100 µM | 786-0 > 100 µM | Hs-578T > 100 µM | SR > 100 µM | NCI-H522 > 100 µM | SW-620 > 100 µM | K562 > 100 µM | SNB-19 > 100 µM | NCI-H226 > 100 µM | A549 > 100 µM | HCC 2998 72.6 µM | Malme-3M 43.1 µM | MCF7 > 100 µM | UO-31 > 100 µM | OVCAR-8 > 100 µM | OVCAR-5 > 100 µM | SK-MEL-28 > 100 µM | SF-295 > 100 µM | IGROV-1 > 100 µM | CCRF-CEM > 100 µM | MDA-MB-435 > 100 µM | SN12C > 10 µM | DU-145 > 100 µM | TK-10 > 100 µM | U-251 > 100 µM | NCI/ADR-RES > 100 µM | PC-3 > 100 µM | OVCAR-3 > 100 µM | CAKI-1 > 100 µM | MDA-MB-231 > 100 µM | SK-MEL-2 > 100 µM | HL-60 34.3 µM | HOP-92 30 µM | M14 77.1 µM | SNB-75 93.8 µM | MOLT-4 > 100 µM | OVCAR-4 > 100 µM | SF-539 > 100 µM | RPMI-8226 > 100 µM | SK-MEL-5 > 100 µM | HCT-116 > 100 µM
> 100 µM: HCT-15

CC(=O)c1sc2c(c1OC(=O)c1cccs1)c(=O)n(-c1ccccc1)c(=S)n2-c1ccccc1
17.5 µM: HCT-15
inactive: EKVX 25.1 µM | A498 4.71 µM | NCI-H460 12.3 µM | HOP-62 17 µM | ACHN 3.54 µM | T47D 15.9 µM | HT-29 3.21 µM | COLO 205 18 µM | SF-268 6.07 µM | MDA-N 5.5 µM | KM12 23 µM | UACC-257 11.7 µM | LOX IMVI 4.84 µM | NCI-H23 19.3 µM | 786-0 4.75 µM | Hs-578T 3.66 µM | SW-620 22.4 µM | K562 35.4 µM | SNB-19 12.5 µM | NCI-H226 3.08 µM | A549 62.5 µM | HCC 2998 39.4 µM | Malme-3M 2.8 µM | MCF7 21 µM | RXF 393 3.86 µM | OVCAR-8 5.01 µM | OVCAR-5 3.29 µM | SK-MEL-28 2.99 µM | UACC-62 19.9 µM | SF-295 2.62 µM | IGROV-1 18.6 µM | CCRF-CEM 3.9 µM | SK-OV-3 21.9 µM | MDA-MB-435 8.24 µM | SN12C 3.94 µM | DU-145 26.8 µM | TK-10 23.7 µM | U-251 5.86 µM | NCI/ADR-RES 15.2 µM | PC-3 3.63 µM | OVCAR-3 23 µM | CAKI-1 30.8 µM | MDA-MB-231 14.4 µM | HL-60 26 µM | HOP-92 5.24 µM | M14 3.24 µM | SNB-75 29.4 µM | MOLT-4 20.3 µM | OVCAR-4 22 µM | SF-539 2.41 µM | RPMI-8226 4.32 µM | SK-MEL-5 12.1 µM | HCT-116 16.9 µM
active: NCI-H522 0.359 µM

CSc1nc2c(c(=O)n1C)N=C(c1ccc([N+](=O)[O-])cc1)CC(c1ccccc1)N2 (configuration not stated)
inactive: EKVX > 100 µM | A498 > 100 µM | NCI-H460 90.6 µM | HOP-62 > 100 µM | ACHN 95.9 µM | HT-29 > 100 µM | COLO 205 > 100 µM | KM12 84.3 µM | UACC-257 > 100 µM | LOX IMVI 78.9 µM | NCI-H23 99.8 µM | 786-0 > 100 µM | SR > 100 µM | NCI-H522 48.8 µM | SW-620 > 100 µM | K562 > 100 µM | SNB-19 > 100 µM | NCI-H226 > 100 µM | A549 > 100 µM | HCC 2998 > 100 µM | BT-549 > 100 µM | Malme-3M > 100 µM | MCF7 49 µM | RXF 393 > 100 µM | UO-31 > 100 µM | OVCAR-8 > 100 µM | OVCAR-5 > 100 µM | SK-MEL-28 > 100 µM | UACC-62 > 100 µM | SF-295 > 100 µM | IGROV-1 > 100 µM | CCRF-CEM 72.4 µM | SK-OV-3 > 100 µM | MDA-MB-435 > 100 µM | SN12C > 100 µM | DU-145 > 100 µM | U-251 > 100 µM | NCI/ADR-RES > 100 µM | PC-3 > 100 µM | OVCAR-3 > 100 µM | CAKI-1 > 100 µM | MDA-MB-231 36.8 µM | SK-MEL-2 > 100 µM | HL-60 20.5 µM | HOP-92 > 100 µM | M14 > 100 µM | SNB-75 41.2 µM | MOLT-4 33 µM | OVCAR-4 91.8 µM | SF-539 > 100 µM | RPMI-8226 > 100 µM | SK-MEL-5 > 100 µM | HCT-116 > 100 µM
